Patent publication US20260053811A1, “METHODS OF TREATING HYPERTENSION IN OBESE SUBJECTS” (Mineralys Therapeutics, Inc., priority 2022, published 2026)

System: hypertensive subjects
Experiment: Seated automated office blood pressure (AOBP) in randomized, placebo-controlled, dose-ranging study
Assay type: in vivo, human
Conditions: Part 1
Procedure: A randomized, double-blinded, placebo-controlled, dose-ranging, multicenter study was conducted to evaluate the effect of orally administered Compound A HBr on blood pressure for the treatment of hypertension in male and female subjects ≥18 years of age.
The study consists of two parts. For enrollment into Part 1 of the study, a subject's value of plasma renin activity (PRA) must be ≤1 ng/mL/h based on morning measurement. If the value of PRA >1 ng/mL/h based on morning measurement, then subjects may be eligible to enter Part 2 of the study.
For Part 1, 163 enrolled subjects ≥18 years of age were randomized into 6 equal treatment groups (1:1:1:1:1:1) to 12.5 mg BID, 25 mg BID, 12.5 mg QD, 50 mg QD, 100 mg QD, or placebo. After a review of interim clinical data, the 2 lowest dose levels (12.5 mg QD and 12.5 mg BID) were stopped for future randomization due to a lack of consistent meaningful reduction of blood pressure, but the patients randomized to that point remained in the study through completion. Thus, after the review of interim clinical data, subjects were randomized into 4 equal treatment groups (1:1:1:1) to 25 mg BID, 50 mg QD, 100 mg QD, or placebo.
For Part 2, 36 enrolled subjects ≥18 years of age were randomized (5:1) to either 100 mg QD Compound A HBr or placebo such that the Compound A HBr treatment group consisted of approximately 30 subjects and the placebo treatment group will consist of approximately 6 subjects.
Subjects orally administered the assigned study drug (Compound A HBr or placebo) according to the assigned dosing regimen for 8 weeks beginning on Study Day 1. All subjects in Part 1 (regardless of dosing group) received BID dosing to preserve the integrity of the blind; active drug is administered as the morning dose for all QD dose groups. Subjects returned to the research facility or were seen by the clinical investigator or approved home health care professional at the end of Study Weeks 1, 2, 3, 4, 5, 6, 7, and 8 (±2 days) for protocol-defined efficacy and safety assessments and procedures, assessment of adverse events (AEs), and confirmation of compliance with study drug usage. Subjects also completed a telephone visit and blood pressure (BP) check at home approximately 3 days post last dose of study drug. Subjects attended up to 14 full clinic visits, including a pre-Screening visit, a Screening/start of Placebo Run-in visit, a second visit during Placebo Run-in, a clinic visit to initiate the ABPM procedure, a Randomization visit, 8 weekly visits during double-blind treatment, and an end-of-study visit scheduled 4 weeks after the last study treatment for final efficacy and safety assessments.
An automated oscillometric sphygmomanometer device was used to measure the subjects' systolic and diastolic blood pressure in office after approximately 5 minutes of rest in the seated position.
The primary endpoint is the change in office-measured (mean of last 2 of 5 unattended measurements using an automated oscillometric sphygmomanometer device after approximately 5 minutes of rest in the seated position) systolic blood pressure (SBP) from baseline to the end of Study Week 8.
Secondary endpoints of this study were: • (a) Change in 24-hour ambulatory blood pressure monitoring (ABPM) parameters (systolic and diastolic) from baseline to the end of Study Week 7. • (b) Change in office-measured SBP from baseline to the end of Study Weeks 1, 2, 3, 4, 5, 6, and 7. • (c) Change in office-measured diastolic blood pressure (DBP) from baseline to the end of Study Weeks 1, 2, 3, 4, 5, 6, 7, and 8. • (d) Proportion of subjects who achieve office-measured BP of ≤130/80 mm Hg by the end of Study Week 8.

[1] = 12.5 mg BID, Seated SBP Tertile High
[2] = 12.5 mg BID, Seated SBP Tertile Middle
[3] = 12.5 mg BID, Systolic Blood Pressure Tertile at Baseline High
[4] = 12.5 mg BID, Systolic Blood Pressure Tertile at Baseline Low
[5] = 12.5 mg BID, Systolic Blood Pressure Tertile at Baseline Middle
[6] = 12.5 mg BID, Thiazide Diuretic Use at Baseline No
[7] = 12.5 mg BID, Thiazide Diuretic Use at Baseline Yes

## CC(=O)N[C@H]1CC[C@H](NC(=O)CN2CCN(c3nncc(-c4ccc(C)cc4)n3)CC2)CC1 [Compound A HBr]
12.5 mg BID, Race Black or AA
  Mean (SD) Change from Baseline at Week 8 in Automated Office-Measured Diastolic Blood Pressure: 0.21 (7.03) mmHg
  Mean (SD) Change from Baseline at Week 8 in Automated Office-Measured Systolic Blood Pressure: −7.43 (20.17) mmHg
12.5 mg BID, Race Other
  Mean (SD) Automated Office-Measured Diastolic Blood Pressure at Wk 8: 72.92 (10.54) mmHg
  Mean (SD) Automated Office-Measured Systolic Blood Pressure at Wk 8: 128.50 (11.84) mmHg
  Mean (SD) Change from Baseline at Week 8 in Automated Office-Measured Diastolic Blood Pressure: −9.38 (7.89) mmHg
  Mean (SD) Change from Baseline at Week 8 in Automated Office-Measured Systolic Blood Pressure: −17.50 (15.80) mmHg
[1]
  Mean (SD) Automated Office-Measured Diastolic Blood Pressure at Wk 8: 74.86 (11.87) mmHg
  Mean (SD) Change from Baseline at Week 8 in Automated Office-Measured Diastolic Blood Pressure: −6.93 (7.79) mmHg
12.5 mg BID, Seated SBP Tertile Low
  Mean (SD) Automated Office-Measured Diastolic Blood Pressure at Wk 8: 78.50 (9.88) mmHg
[2]
  Mean (SD) Automated Office-Measured Diastolic Blood Pressure at Wk 8: 73.88 (9.48) mmHg
  Mean (SD) Change from Baseline at Week 8 in Automated Office-Measured Diastolic Blood Pressure: −6.69 (10.60) mmHg
12.5 mg BID, Sex Female
  Mean (SD) Automated Office-Measured Diastolic Blood Pressure at Wk 8: 74.07 (10.32) mmHg
  Mean (SD) Automated Office-Measured Systolic Blood Pressure at Wk 8: 131.00 (14.17) mmHg
  Mean (SD) Change from Baseline at Week 8 in Automated Office-Measured Diastolic Blood Pressure: −5.25 (9.78) mmHg
  Mean (SD) Change from Baseline at Week 8 in Automated Office-Measured Systolic Blood Pressure: −12.46 (18.69) mmHg
[3]
  Mean (SD) Automated Office-Measured Systolic Blood Pressure at Wk 8: 131.86 (14.81) mmHg
  Mean (SD) Change from Baseline at Week 8 in Automated Office-Measured Systolic Blood Pressure: −24.93 (18.46) mmHg
[4]
  Mean (SD) Automated Office-Measured Systolic Blood Pressure at Wk 8: 132.25 (10.34) mmHg
  Mean (SD) Change from Baseline at Week 8 in Automated Office-Measured Systolic Blood Pressure: −0.75 (5.48) mmHg
[5]
  Mean (SD) Automated Office-Measured Systolic Blood Pressure at Wk 8: 131.75 (14.00) mmHg
  Mean (SD) Change from Baseline at Week 8 in Automated Office-Measured Systolic Blood Pressure: −10.56 (16.34) mmHg
[6]
  Automated Office-Measured Diastolic Blood Pressure, Week 8, Mean (SD): 79.57 (10.75) mmHg
  Mean (SD) Automated Office-Measured Systolic Blood Pressure at Wk 8: 139.29 (13.28) mmHg
  Mean (SD) Change from Baseline at Week 8 in Automated Office-Measured Diastolic Blood Pressure: −3.29 (8.80) mmHg
  Mean (SD) Change from Baseline at Week 8 in Automated Office-Measured Systolic Blood Pressure: −4.43 (15.93) mmHg
[7]
  Automated Office-Measured Diastolic Blood Pressure, Week 8, Mean (SD): 72.67 (9.15) mmHg
  Mean (SD) Automated Office-Measured Systolic Blood Pressure at Wk 8: 127.58 (11.07) mmHg
  Mean (SD) Change from Baseline at Week 8 in Automated Office-Measured Diastolic Blood Pressure: −7.33 (8.79) mmHg
  Mean (SD) Change from Baseline at Week 8 in Automated Office-Measured Systolic Blood Pressure: −19.25 (16.90) mmHg
12.5 mg QD, ACEi/ARB No
  Mean (SD) Automated Office-Measured Systolic Blood Pressure at Wk 8: 138.25 (20.45) mmHg
  Mean (SD) Change from Baseline at Week 8 in Automated Office-Measured Systolic Blood Pressure: −8.50 (31.61) mmHg
12.5 mg QD, ACEi/ARB Yes
  Mean (SD) Automated Office-Measured Systolic Blood Pressure at Wk 8: 141.50 (23.12) mmHg
  Mean (SD) Change from Baseline at Week 8 in Automated Office-Measured Systolic Blood Pressure: −6.39 (16.84) mmHg
12.5 mg QD, ACEi/ARBs No
  Mean (SD) Automated Office-Measured Diastolic Blood Pressure at Wk 8: 73.25 (13.50) mmHg
  Mean (SD) Change from Baseline at Week 8 in Automated Office-Measured Diastolic Blood Pressure: −5.50 (11.85) mmHg
12.5 mg QD, ACEi/ARBs Yes
  Mean (SD) Automated Office-Measured Diastolic Blood Pressure at Wk 8: 83.79 (17.89) mmHg
  Mean (SD) Change from Baseline at Week 8 in Automated Office-Measured Diastolic Blood Pressure: −0.71 (13.94) mmHg
12.5 mg QD, AHTs 2
  Mean (SD) Automated Office-Measured Diastolic Blood Pressure at Wk 8: 80.80 (18.35) mmHg
  Mean (SD) Automated Office-Measured Systolic Blood Pressure at Wk 8: 142.80 (25.41) mmHg
  Mean (SD) Change from Baseline at Week 8 in Automated Office-Measured Diastolic Blood Pressure: −4.60 (10.04) mmHg
  Mean (SD) Change from Baseline at Week 8 in Automated Office-Measured Systolic Blood Pressure: −9.70 (21.49) mmHg
12.5 mg QD, AHTs ≥3
  Mean (SD) Automated Office-Measured Diastolic Blood Pressure at Wk 8: 82.25 (16.96) mmHg
  Mean (SD) Automated Office-Measured Systolic Blood Pressure at Wk 8: 138.25 (18.26) mmHg
  Mean (SD) Change from Baseline at Week 8 in Automated Office-Measured Diastolic Blood Pressure: 1.75 (16.61) mmHg
  Mean (SD) Change from Baseline at Week 8 in Automated Office-Measured Systolic Blood Pressure: −3.31 (18.37) mmHg
12.5 mg QD, Age 65-79 yr
  Mean (SD) Automated Office-Measured Diastolic Blood Pressure at Wk 8: 77.25 (5.52) mmHg
